Test results published in US11576860B2, “Retrieval systems and related methods” (Massachusetts Institute of Technology, priority 2018, dated 2023).

Key:
[1] = cited from earlier work
[2] = pig, in vivo
[3] = Blood concentrations of doxycycline hyclate after deployment of drug delivery formulations in pigs (Example 1); assay type: in vivo; conditions: drug/vinylpolysiloxane pills (32% drug loading) deployed in three Yorkshire pigs
Protocol: The model drug, doxycycline hyclate, is added to the Zhermack Elite Double 22 base and catalyst to obtain a final drug loading percentage of 32%. Each pill has around 30 mg of drug (FIG. 1B). Drug crystals less than 75 μm can be visualized on the surface of the pill using scanning electron microscope (FIG. 1C). A series of pills with 0.5 mm holes inside them can be strung on a retention frame such as nitinol superelastic wire and encased in a Tygon tubing with stainless steel beads and Nusil glue at the ends of the article (FIG. 1D). Other drugs such as moxifloxacin, isoniazid, pyrazinamide, and ethambutol can also be mixed with the Zhermack Elite Double 22 base and catalyst at drug loading percentages greater than 25 wt %. Stability of the drug form can be evaluated using proton nuclear magnetic resonance spectroscopy after extraction of the drug from the matrix in water.
The pills were created by first mixing the drug into the Zhermack Elite Double 22 base and catalyst. […] Drug loading percentages were determined relative to the finally cured silicone mixture weight. […]
After deployment of the drug delivery formulations in three Yorkshire pigs in a large animal model, concentrations of doxycycline hyclate in the blood were measured, and drug release is sustained for at least 7 days with non-zero values (FIG. 3B).

| duration of detectable serum concentrations [2] | drug release sustained with non-zero concentrations in the blood [3] | duration drug was detectable in serum [2] | time after which no drug was detectable in serum [2] [days] | time to detectable serum concentrations [2] [min] | Compound | stability in acid [1] |
| --- | --- | --- | --- | --- | --- | --- |
| a week | – | – | – | – | CO[C@H]1/C=C/O[C@@]2(C)Oc3c(C)c(O)c4c(O)c(c(/C=N/N5CCN(C)CC5)c(O)c4c3C2=O)NC(=O)/C(C)=C\C=C\[C@H](C)[C@H](O)[C@@H](C)[C@@H](O)[C@@H](C)[C@H](OC(C)=O)[C@@H]1C [rifampicin] | rapidly degrades in acid |
| – | at least 7 days | at least 28 days | 3 | ≤ 15 | doxycycline hyclate | – |
